Experimental data published in patent publication US20220233566A1, “NOVEL CARBONATE COMPOUND HAVING PYRROLOPYRIMIDINE SKELETON OR PHARMACEUTICALLY ACCEPTABLE SALT THEREOF” (TAIHO PHARMACEUTICAL CO., LTD., priority 2019, published 2022).
pIC50: −log10 of the molar value.

Assays:
Assay type in all cases: cell-based
SW48 = assay: Growth suppression activity in human tumor cell line; conditions: 72 h; Human colorectal cancer, SW48, 3 days
Description: (§1) Human tumor cell lines different in type were suspended in mediums, seeded in individual wells of a multi-well plate and cultured. On the day after initiation of culture, serially diluted solutions of a compound were added. Culture was carried out for further 3 days. Cells were counted by a CellTiter-Glo (manufactured by Promega KK) in accordance with the protocol recommended by Promega KK. Cell viability was calculated in accordance with the equation shown below and the concentration (IC50 (μM)) of the compound at which 50% of cell growth is inhibited was obtained.
(§2) T: Intensity of light emitted from a well containing a compound
(§3) C: Intensity of light emitted from a well containing no compound

MKN45 = assay: as above; conditions: MKN-45, 72 h; Human stomach cancer, MKN45, 3 days
Description: as §1, §2, §3

BHL-89 = assay: as above; conditions: 72 h; Human hematopoietic organ tumor, BHL-89, 3 days
Description: as §1, §2, §3

MCF7 = assay: as above; conditions: 72 h; Human breast cancer, MCF7, 3 days
Description: as §1, §2, §3

H1703 = assay: as above; conditions: NCI-H1703, 72 h; Human lung cancer, H1703, 3 days
Description: as §1, §2, §3

H2170 = assay: as above; conditions: NCI-H2170, 72 h; Human lung cancer, H2170, 3 days
Description: as §1, §2, §3

H69 = assay: as above; conditions: NCI-H69, 72 h; Human lung cancer, H69, 3 days
Description: as §1, §2, §3

H526 = assay: as above; conditions: NCI-H526, 72 h; Human lung cancer, H526, 3 days
Description: as §1, §2, §3

A673 = assay: as above; conditions: 72 h; Human bone tumor, A673, 3 days
Description: as §1, §2, §3

BXPC3 = assay: as above; conditions: BXPC-3, 72 h; Human pancreatic cancer, BXPC3, 3 days
Description: as §1, §2, §3

RPMI8226 = assay: as above; conditions: RPMI-8226, 72 h; Human hematopoietic organ tumor, RPMI8226, 3 days
Description: as §1, §2, §3

Mero48a = assay: as above; conditions: 72 h, Human lung cancer, 3 days
Description: as §1, §2, §3

DLD1 = assay: as above; conditions: DLD-1, 72 h; Human colorectal cancer, DLD1, 3 days
Description: as §1, §2, §3

SW620 = assay: as above; conditions: SW-620, 72 h; Human colorectal cancer, SW620, 3 days
Description: as §1, §2, §3

H460 = assay: as above; conditions: NCI-H460, 72 h; Human lung cancer, H460, 3 days
Description: as §1, §2, §3

H226 = assay: as above; conditions: NCI-H226, 72 h; Human lung cancer, H226, 3 days
Description: as §1, §2, §3

A172 = assay: as above; conditions: A 172, 72 h; Human brain tumor, A172, 3 days
Description: as §1, §2, §3

HCC1806 = assay: as above; conditions: 72 h; Human breast cancer, HCC1806, 3 days
Description: as §1, §2, §3

[1] = as above; conditions: 72 h; Human prostate cancer, DUI45, 3 days
Description: as §1, §2, §3

DMS273 = assay: as above; conditions: DMS-273, 72 h; Human lung cancer, DMS273, 3 days
Description: as §1, §2, §3

HCT116 = assay: as above; conditions: HCT-116, 72 h; Human colorectal cancer, HCT116, 3 days
Description: as §1, §2, §3

786-0 = assay: as above; conditions: 72 h; Human renal cancer, 786-0, 3 days
Description: as §1, §2, §3

HL60 = assay: as above; conditions: HL-60, 72 h; Human hematopoietic organ tumor, HL60, 3 days
Description: as §1, §2, §3

HT29 = assay: as above; conditions: HT-29, 72 h; Human colorectal cancer, HT29, 3 days
Description: as §1, §2, §3

CA9-22 = assay: as above; conditions: 72 h; Human head and neck cancer, CA9-22, 3 days
Description: as §1, §2, §3

HT1376 = assay: as above; conditions: HT-1376, 72 h; human bladder cancer, HT1376, 3 days
Description: as §1, §2, §3

HT1197 = assay: as above; conditions: 72 h; human bladder cancer, HT1197, 3 days
Description: as §1, §2, §3

BC3 = assay: as above; conditions: BC-3, 72 h; Human hematopoietic organ tumor, BC3, 3 days
Description: as §1, §2, §3

H441 = assay: as above; conditions: NCI-H441, 72 h; Human lung cancer, H441, 3 days
Description: as §1, §2, §3

EBC1 = assay: as above; conditions: EBC-1, 72 h; Human lung cancer, EBC1, 3 days
Description: as §1, §2, §3

## Nc1ncnc2c1c(Br)cn2[C@@H]1O[C@H](CO)[C@@H](O)[C@@H]1F [Comparative Example 1, (2R,3R,4S,5R)-5-(4-amino-5-bromo-7H-pyrrolo[2,3-d]pyrimidin-7-yl)-4-fluoro-2-(hydroxymethyl) tetrahydrofuran-3-ol]
SW48
  pIC50: 6.89
MKN45
  pIC50: 6.68
BHL-89
  pIC50: 6.64
MCF7
  pIC50: 7.10
H1703
  pIC50: 7.70
H2170
  pIC50: 6.59
H69
  pIC50: 6.96
H526
  pIC50: 6.77
A673
  pIC50: 6.89
BXPC3
  pIC50: 6.57
RPMI8226
  pIC50: 6.47
Mero48a
  pIC50: 6.80
DLD1
  pIC50: 7.30
SW620
  pIC50: 6.64
H460
  pIC50: 7.10
H226
  pIC50: 6.89
A172
  pIC50: 6.85
HCC1806
  pIC50: 6.89
[1]
  pIC50: 7.05
DMS273
  pIC50: 6.40
HCT116
  pIC50: 6.92
786-0
  pIC50: 6.66
HL60
  pIC50: 6.52
HT29
  pIC50: 6.96
CA9-22
  pIC50: 7.10
HT1376
  pIC50: 7.22
HT1197
  pIC50: 6.89
BC3
  pIC50: 7.70
H441
  pIC50: 6.85
EBC1
  pIC50: 7.22
